Reference: patent publication US20260200903A1, “PHARMACEUTICAL COMPOSITION FOR AMELIORATING MALIGNANT DISEASES” (KINKI UNIVERSITY, priority 2020, published 2026)

How the values were obtained:
IgG [1] = assay: IgG secretion in KMS-28BM cells, ELISA; format: cell-based, human; conditions: KMS-28BM culture supernatant after 10 days; compounds at 0.005-50 μM; control 1326 ng/mL
Description: The inhibitory effect of each compound on IgG secretion was examined by enzyme-linked immunosorbent assay (ELISA) using KMS-28BM cells.
As a control, compounds untreated KMS-28BM cells were seeded in 75 cm^2 flasks and incubated for 10 days at 37° C. and 5% CO2. KMS-28BM cells were seeded into 75 cm^2 flasks and pre-cultured for 4 h. After incubation, KMS-28BM cells were treated with […], 0.05 μM M9, 0.1 μM yk-7, 0.1 μM yk-8-3, 50 μM yk-8-1, 0.5 μM M11, […], 0.005 μM M14, 0.005 μM M15, 0.005 μM M16, 0.5 μM M18, and 0.5 μM M19 at final concentrations, and incubated for 10 days at 37° C. and 5% CO2. After 10 days of incubation, the culture supernatant was collected and IgG secretion was measured by ELISA. This measurement was performed using a human anti-IgG antibody ELISA kit (Funakoshi).

IgG [2] = assay: IgG secretion in L363 cells, ELISA; format: cell-based, human; conditions: L363 culture supernatant after 10 days; compounds at 0.005-50 μM; control 2098 ng/mL
Description: The inhibitory effect of each compound on IgG secretion was examined by enzyme-linked immunosorbent assay (ELISA) using L363 cells.
(§1) As a control, compounds untreated L363 cells were seeded in 75 cm^2 flasks and incubated for 10 days at 37° C. and 5% CO2. L363 cells were seeded into 75 cm^2 flasks and pre-cultured for 4 h. After incubation, L363 cells were treated with 0.1 μM M7, 0.05 μM M9, 0.1 μM yk-7, 0.1 μM yk-8-3, 50 μM yk-8-1, 0.1 μM M11, 0.01 μM M12, 0.005 μM M14, 0.005 μM M15, 0.005 μM M16, 1 μM M18, and 1 μM M19 at final concentrations, and incubated for 10 days at 37° C. and 5% CO2. After 10 days of incubation, the culture supernatant was collected and IgG secretion was measured by ELISA. This measurement was performed using a human anti-IgG antibody ELISA kit (Funakoshi).

MIP-1α = MIP-1α secretion in L363 cells, Luminex; format: cell-based, human; conditions: L363 culture supernatant after 10 days; compounds at 0.005-50 μM; control 266 μg/mL
Description: The inhibitory effect of each compound on MIP-1α secretion was examined using Luminex in L363 cells.
as §1, with “the” for “IgG”, “secretion of MIP-la, a bone destruction-related factor and a growth-promoting factor,” for “secretion”, “Luminex. The human Magnetic Luminex Assay (R&D)” for “ELISA. This measurement”, “used for this measurement.” for “performed using a human anti-IgG antibody ELISA kit (Funakoshi).”

L363 cells = assay: Tumor growth inhibition in mice transplanted with L363 cells; format: in vivo, NOD/ShiJic-scidJcl mice; conditions: oral 100 mg/kg daily, day 24, vs control group (P<0.01)
Description: L363 cells were transplanted into NOD/ShiJic-scidJcl mice, and the tumor growth inhibitory effect of oral administration of M9 was examined. As a result, a remarkable tumor growth inhibitory effect was observed.
L363 cells were transplanted into NOD/ShiJic-scidJcl mice, and M9 was orally administered to the mice at 100 mg/kg daily on day 0 when the average tumor volume exceeded 100 mm^3, and tumor volume was measured on day 24.
The group that was only implanted with L363 cells is called the target group and the group that was treated with M9 is called the M9-treated group. Each group consisted of 5 animals.
Referring to the figure, the horizontal axis indicates drug treatment, and the vertical axis indicates tumor volume (percent of the control group).
White bars indicate the control group (labeled “Control”). Black bars indicate the M9 treatment group (labeled “100 mg/kg M9”). Those with significant differences (P<0.01) from the control group are marked with an asterisk (*).

Work on `CCCCC(=O)OC[C@H]1O[C@@H](c2c(OC(=O)CCCC)cc3oc4cc(OC(=O)CCCC)c(OC(=O)CCCC)cc4c(=O)c3c2OC(=O)CCCC)[C@H](OC(=O)CCCC)[C@@H](OC(=O)CCCC)[C@@H]1OC(=O)CCCC` [yk-8-1, 1,3,2′,3′,4′,6,6′,7-octa-O-valerylmangiferin] yielded an IgG secretion (IgG [1]) of 1117 ng/mL, an IgG secretion (IgG [2]) of 1474 ng/mL and an MIP-1α secretion (MIP-1α) of 179 µg/mL.
In the case of `CCC(=O)OC[C@H]1O[C@@H](c2c(O)cc3oc4cc(O)c(O)cc4c(=O)c3c2O)[C@H](OC(=O)CC)[C@@H](OC(=O)CC)[C@@H]1OC(=O)CC` [Compound M9, 2′,3′,4′,6′-tetra-O-propionylmangiferin], the “tumor growth (tumor volume, percent of the control group)” value (L363 cells) is reported as “significant inhibition of tumor growth”.
`CCCC(=O)OC[C@H]1O[C@@H](c2c(OC(=O)CCC)cc3oc4cc(OC(=O)CCC)c(OC(=O)CCC)cc4c(=O)c3c2OC(=O)CCC)[C@H](OC(=O)CCC)[C@@H](OC(=O)CCC)[C@@H]1OC(=O)CCC` [Compound M11, 1,3,2′,3′,4′,6,6′,7-octa-O-butyrylmangiferin] gave an IgG secretion (IgG [1]) of 61 ng/mL, an IgG secretion (IgG [2]) of 44 ng/mL and an MIP-1α secretion (MIP-1α) of 6 µg/mL.
